Ends that are not written are not given here.
Tests used:
[1] = tested on: E. coli ATCC 25922; format: cell-based, Escherichia coli; conditions: ATCC 25922, 18 h
Method: (§1) Reference bacterial strains, including Escherichia coli BW25113, Escherichia coli ATCC 25922, Klebsiella pneumoniae ATCC 700603, Acinetobacter baumannii ATCC 19606, Enterobacter cloacae ATCC 13047, Pseudomonas aeruginosa ATCC 27853, Staphylococcus aureus ATCC 25923, and Enterococcus faecium ATCC 19434, were obtained from the American Type Culture Collection (ATCC) in Manassas, VA, USA. Strains were stored at −80 °C in glycerol stocks until use. For all experiments, cultures were grown in sterile MHB (Difco Inc., Becton Dickinson, Sparks, MD, USA). Overnight cultures were incubated at 37 °C for approximately 18 h under shacking (140 rpm, then diluted 1:30 in fresh MHB and again shaken at 140 rpm for ~2 h to reach the mid-log phase (OD ~0.3 at 600 nm). The bacterial cultures were then diluted to the desired concentration for experiments. E. coli BW25113 ΔsbmA (Keio collection) was grown in MHB with the addition of 50 μg/mL kanamycin (Sigma, Milan, Italy).
(§2) Antimicrobial activity was assessed using the Minimum Inhibitory Concentration (MIC) assay, following CLSI guidelines. Briefly, peptides were serially diluted in MHB across a 96-well round-bottom plate (Sarstedt, Milan, Italy), starting with 50 μL in the first well. A mid-log bacterial culture was diluted to 5 × 10^5 CFU/mL, and 50 μL of this suspension was added to each well (except the MHB sterility control wells). […] MIC values were confirmed by at least three independent experiments (n ≥ 3).

[2] = tested on: E. coli BW 25113 ΔsbmA; format: cell-based, Escherichia coli; conditions: full MHB, 18 h at 37 °C, mode of at least three independent experiments
Method: as §1, §2

[3] = tested on: E. coli BW 25113; format: cell-based, Escherichia coli; conditions: full MHB, 18 h at 37 °C, mode of at least three independent experiments
Method: as §1, §2

[4] = tested on: E. faecium ATCC 19434; format: cell-based, Enterococcus faecium; conditions: ATCC 19434, 18 h
Method: as §1, §2

[5] = tested on: S. aureus ATCC 25923; format: cell-based, Staphylococcus aureus; conditions: ATCC 25923, 18 h
Method: as §1, §2

[6] = tested on: A. baumannii ATCC 19606; format: cell-based, Acinetobacter baumannii; conditions: ATCC 19606, 18 h
Method: as §1, §2

[7] = tested on: P. aeruginosa ATCC 27853; format: cell-based, Pseudomonas aeruginosa; conditions: ATCC 27853, 18 h
Method: as §1, §2

[8] = tested on: E. coli ATCC 25922; format: cell-based, Escherichia coli; conditions: ATCC 25922, 18 h; remark: listed apart in the source
Method: as §1
(§3) The Minimal Bactericidal Concentration (MBC) was determined by plating 25 μL from clear MIC wells onto MH-agar Petri dishes (Difco Inc., Becton Dickinson, Sparks, MD, USA), followed by overnight incubation at 37 °C. The MBC was the lowest compound concentration, reducing bacterial viability by ≥99.9%. Results were based on at least three independent experiments (n ≥ 3).

[9] = tested on: E. coli BW 25113 ΔsbmA; format: cell-based, Escherichia coli; conditions: ≥99.9% reduction of viability, after 18 h at 37 °C, mode of at least three independent experiments
Method: as §1, §3

[10] = tested on: E. coli BW 25113; format: cell-based, Escherichia coli; conditions: ≥99.9% reduction of viability, after 18 h at 37 °C, mode of at least three independent experiments
Method: as §1, §3

[11] = tested on: E. faecium ATCC 19434; format: cell-based, Enterococcus faecium; conditions: ATCC 19434, 18 h; remark: listed apart in the source
Method: as §1, §3

[12] = tested on: S. aureus ATCC 25923; format: cell-based, Staphylococcus aureus; conditions: ATCC 25923, 18 h; remark: listed apart in the source
Method: as §1, §3

[13] = tested on: K. pneumoniae ATCC 700603; format: cell-based, Klebsiella pneumoniae; conditions: ATCC 700603, 18 h
Method: as §1, §3

[14] = tested on: A. baumannii ATCC 19606; format: cell-based, Acinetobacter baumannii; conditions: ATCC 19606, 18 h; remark: listed apart in the source
Method: as §1, §3

[15] = tested on: P. aeruginosa ATCC 27853; format: cell-based, Pseudomonas aeruginosa; conditions: ATCC 27853, 18 h; remark: listed apart in the source
Method: as §1, §3

[16] = tested on: A549 cells; format: cell-based, human
Method: The human lung carcinoma epithelial cell line (A549) was obtained from the American Type Culture Collection (ATCC) (Manassas, VA, USA). A549 cells were cultured in adhesion flasks (EuroClone, Milan, Italy) with complete Dulbecco’s MEM (DMEM, EuroClone, Milan, Italy) containing high glucose, supplemented with 100 U/mL penicillin, […] streptomycin (Sigma, Milan, Italy), 2 mM L-glutamine, and 10% FBS (Life Technologies, Carlsbad, CA, USA). Cells were incubated at 37 °C with 5% CO2.
Cytotoxicity in A549 cells was assessed using the MTT assay. After reaching confluence, cells were counted using a Bürker–Türk chamber and diluted to 2 × 10^5 cells/mL in DMEM. A total of 100 μL of this suspension was seeded into 96-well plates (Sarstedt, Milan, Italy) and incubated overnight at 37 °C with 5% CO2. The next day, the spent medium was replaced with 100 μL of fresh DMEM medium containing peptide or water at the desired concentration. After 20 h of incubation, 25 μL of 1 mg/mL MTT (Sigma, Milan, Italy) in PBS was added, and the plates were incubated for 4 h in the dark. […] After overnight incubation, absorbance was measured at 570 nm using a Nanoquant Infinite-M200Pro plate reader (Tecan Trading AG, Switzerland). The cytotoxicity was calculated by comparing the OD of treated samples with that of untreated controls. […]

## WRIRRRWPRLPRPRWRPRFPPPFPIPR [Peptide B7-T11]
[1]
  MIC: 2 µM
  MIC (geometric mean): 1,3 µM
[2]
  MIC: 1 µM
[3]
  MIC: 1 µM
[4]
  MIC: 4 µM
  MIC (geometric mean): 5,0 µM
[5]
  MIC: 16 µM
  MIC (geometric mean): 12,7 µM
[6]
  MIC: 1 µM
  MIC (geometric mean): 1,3 µM
[7]
  MIC: 16 µM
  MIC (geometric mean): 12,7 µM
[8]
  MBC: 2 µM
  MBC (geometric mean): 1,3 µM
[9]
  MBC: 2 µM
[10]
  MBC: 1 µM
[11]
  MBC: 32 µM
  MBC (geometric mean): 40,3 µM
[12]
  MBC: 16 µM
  MBC (geometric mean): 20,2 µM
[13]
  MBC: 4 µM
  MBC (geometric mean): 3,2 µM
[14]
  MBC: 2 µM
  MBC (geometric mean): 1,6 µM
[15]
  MBC: 16 µM
  MBC (geometric mean): 20,2 µM
[16]
  Cytotoxicity toward A549 cells (MTT) at 64 µM: cytotoxic

— publication PMC12190468, “Designing New Chimeric Proline-Rich Antimicrobial Peptides to Enhance Efficacy Toward the ESKAPE+E: Beyond Sequence Extension” (Biomolecules, 2025)
